Measured values as given in patent US6964966B2, “Generation triple-targeting, chiral, broad-spectrum antimicrobial 7-substituted piperidino-quinolone carboxylic acid derivatives, their preparation, compositions and use as medicaments” (Wockhardt Limited, priority 2001, dated 2005).
Converted amounts (≈) assume the structure as drawn. Where two headings read alike, the source gives them in different places.

Experiments:
[1] = test system: Fluoroquinolone-Resistant Strains; assay: In-vitro antimicrobial test, MIC by agar dilution (NCCLS): fluoroquinolone-resistant strains (Table 18); assay type: cell-based
Experimental: (§1) The test method was in accordance with the standard NCCLS protocol (Methods for Dilution Antimicrobial Susceptibility Tests for Bacteria that grow Aerobicially, Approved Standards, M7-A5, Fifth Edition, January 2000).
(§2) The antibacterial activities (minimum inhibitory concentration: MIC, mcg/ml) were determined by using the two-fold serial agar dilution method recommended by NCCLS. The media used for preculture and main culture were Tryptic Soya broth (Difco) and Mueller Hinton medium (Difco), respectively. The Mueller Hinton agar was supplemented with 5% sheep blood for streptococci. Overnight cultures were diluted with buffered saline (pH 7.2) to the final cell density of 5×10^6-10^7 CFU/ml, and each bacterial suspension was applied with a replicator (Denley's multipoint inoculator, UK) onto a series of Mueller-Hinton agar plates containing antibacterial agents at various concentrations. Final inoculum was approximately 10^4 CFU/spot. The plates were incubated for 18 hrs at 37° C. The MIC was defined as the lowest concentration of an antibacterial agent that inhibits the development of visible microbial growth on agar.

[2] = test system: Fluoroquinolone Sensitive Strains; assay: In-vitro antimicrobial test, MIC by two-fold serial agar dilution (NCCLS): fluoroquinolone sensitive strains (Table 17); assay type: cell-based
Experimental: as §1, §2

[3] = test system: Trovafloxacin-Resistant and Vancomycin-Resistant Enterococci; assay: In-vitro antimicrobial test, MIC by agar dilution (NCCLS): enterococci (Table 19); assay type: cell-based; conditions: for MIC: read-out: MIC, V R E 336
Excerpt: The comparative antimicrobial activity of representative compounds of the invention and reference compounds against various sensitive and resistant microorganisms is given in Tables 17 to 20. The test method was in accordance with the standard NCCLS protocol (Methods for Dilution Antimicrobial Susceptibility Tests for Bacteria that grow Aerobicially, Approved Standards, M7-A5, Fifth Edition, January 2000).
as §2

[4] = test system: Multidrug-Resistant (MDR) Pneumococcal Infections; assay: In-vivo antimicrobial test: systemic infection model (mouse septicemia), oral ED50 (Table 22); set-up: species or system Swiss mice; conditions: oral 1 hour and 5 hours post-infection, survival on day 7, strain resistant to β-lactams, macrolides and fluoroquinolones
Experimental: The in vivo efficacy was studied through mouse septicemia model of infection in Swiss male and female mice (4 weeks old, 20+2 g weight) using 6 animals in each group. Infective organisms were inoculated intraperitonially. Compound were administered by oral route 1 hour and 5 hours post-infection. […] Appropriate comparators were included in the study.

[5] = test system: MRSA 5027; assay type: cell-based
[6] = Phototoxicity, oral dose and UVA exposure, mice; conditions: UVA 4 hours for 4 consecutive days, dose causing ear erythema and oedema
Experimental: The stock solutions for different doses were prepared freshly on the day of experimentation. Appropriate concentration of each dose was chosen to give a constant dosage volume of 0.3-0.4 ml/20 g body weight of mouse. The treated mice were exposed to UVA light source immediately after dosing for 4 hours and for 4 consecutive days. The mean light intensity in the UVA chamber was adjusted to 0.9-1.2 mW/cm^2. The total irradiation dose was approximately 18 Joules/cm^2/day. A phototoxic dose is one which causes ear erythema and oeadema.

[7] = test system: J 744 (mouse macrophage); assay: Cytotoxicity test (Alamar blue), J 744 cells (Table 23); assay type: cell-based; conditions: minimum drug concentration inhibiting Alamar blue color change; 3 hrs drug exposure, then 96 hrs incubation; J 744 mouse macrophage cells
Experimental: (§3) Compounds were evaluated for their cytotoxic potential against two […] viz. […] Freshly grown cells were distributed in microtiter plates at a cell density of 10^5-10^6 cells/well and allowed to adhere and form monolayer by incubating the microtiter plate at 37° C. for 24 hrs. […] Following 3 hrs. of drug exposure, cells were washed with D-MEM and incubated further for 96 hrs. Cytotoxic effects of drugs were monitored through daily microscopic observation and by ascertaining the metabolic status through redox indicator Alamar blue. Healthy actively metabolising cells bring about colour change of Alamar blue from blue to pink within an overnight incubation. Cytotoxic drugs inhibit this reaction resulting into blue coloured wells. Minimum drug concentration inhibiting Alamar blue color change i.e. resulting into blue coloured wells for a given drug is considered cytotoxic concentration.

[8] = test system: V79 (Chinese Hamster Lung); assay: Cytotoxicity test (Alamar blue), V79 cells (Table 23); assay type: cell-based; conditions: minimum drug concentration inhibiting Alamar blue color change, 3 hrs drug exposure, then 96 hrs incubation
Experimental: as §3

[9] = test system: Clinical Isolate MRSA 5076 with Mutations in DNA Gyrase and Topoisomerase IV as well as bearing an Efflux Pump; assay type: cell-based
Experimental: as §1, §2

[10] = vancomycin-resistant Enterococcus faecium 336
[11] = Enterococcus faecalis, ATCC29212, E. faecalis ATCC 29212, read-out: MIC, E. faecalis ATCC 29212

SMILES: Cc1c(N2CCC(O)C(C)C2)c(F)cc2c(=O)c(C(=O)O)cn(C3CC3)c12 (mixture of isomers) [Compound 84, cis/trans-1-Cyclopropyl-6-fluoro-8-methyl-7-(4-hydroxy-3-methyl-1-piperidinyl)-1,4-dihydro-4-oxo-quinoline-3-carboxylic acid]
- MIC, Cipro^R S. mitis 938 [1]: 0.4 µg/mL
- MIC, Cipro^R S. sanguis 941 [1]: 0.4 µg/mL
- MIC, FQ^R S. pneumoniae 718 [1]: 0.8 µg/mL
- MIC, MRSA 032 [1]: 0.2 µg/mL
- MIC, E. coli ATCC 25922 [2]: 0.2 µg/mL
- MIC, E. faecalis ATCC 29212 ([2]; E. faecalis ATCC 29212): 0.05 µg/mL
- MIC, MSSA ATCC 25923 ([2]; MSSA ATCC 25923): 0.003 µg/mL
- MIC, P. aeruginosa 27853 ([2]; P. aeruginosa 27853): 3.12 µg/mL
- MIC, S. pneumoniae ATCC 49619 ([2]; S. pneumoniae ATCC 49619): 0.025 µg/mL
- MIC, S. sanguis ATCC 10556 ([2]; S. sanguis ATCC 10556 (Viridans Streptococci)): 0.05 µg/mL
- MIC, Trova-Resist MRSE 110 ([3]; Trovafloxacin-resistant methicillin-resistant S. epidermidis 110): 0.4 µg/mL
- MIC, V R E 336 [3, 10]: 3.12 µg/mL

SMILES: COc1c(N2CCC(N)C(C)(C)C2)c(F)cc2c(=O)c(C(=O)O)cn(C3CC3)c12 (racemic) [Compound 18, (±)-1-Cyclopropyl-6-fluoro-1,4-dihydro-8-mehtoxy-7-(4-amino-3,3-dimethyl-1-piperidinyl)-4-oxo-quinoline-3-carboxylic acid]
- MIC, Cipro^R S. sanguis 941 [1]: 0.4 µg/mL (≈ 0.991 µM)
- MIC, FQ^R S. pneumoniae 718 [1]: 0.8 µg/mL (≈ 1.98 µM)
- MIC, MRSA 032 [1]: 0.8 µg/mL (≈ 1.98 µM)
- ED50 p.o. MDR S. pneumoniae 718 [4]: 30 mg/kg
- MIC, E. coli ATCC 25922 [2]: 0.2 µg/mL (≈ 0.496 µM)
- MIC against MRSA 5027 after 10 passage in drug containing medium ([5]; after 10 passages): 0.4 µg/mL (≈ 0.991 µM)
- MIC against MRSA 5027, initially ([5]; before passages in drug-containing medium): 0.4 µg/mL (≈ 0.991 µM)
- phototoxic dose [6]: greater than 500 mg/kg

SMILES: Cc1c(N2CC[C@H](O)[C@H](C)C2)c(F)cc2c(=O)c(C(=O)O)cn(C3CC3)c12 (relative stereo) [Compound 85, cis-1-Cyclopropyl-6-fluoro-8-methyl-7-(4-hydroxy-3-methyl-1-piperidinyl)-1,4-dihydro-4-oxo-quinoline-3-carboxylic acid]
- Cytotoxic concentration, J 744 Macrophage [7]: >1000 µg/mL
- MIC [2, 11]: 0.1 µg/mL (≈ 0.267 µM)
- MIC ([2]; S. sanguis ATCC 10556 (Viridans Streptococci), read-out: MIC, S. sanguis ATCC 10556): 0.025 µg/mL (≈ 0.0668 µM)
- Cytotoxic concentration, V 79 CHL [8]: >1000 µg/mL
- MIC [3, 10]: 3.12 µg/mL (≈ 8.33 µM)

SMILES: Cc1c(N2CC[C@@H](O)[C@H](C)C2)c(F)cc2c(=O)c(C(=O)O)cn(C3CC3)c12 (relative stereo) [Compound 86, trans-1-Cyclopropyl-6-fluoro-8-methyl-7-(4-hydroxy-3-methyl-1-piperidinyl)-1,4-dihydro-4-oxo-quinoline-3-carboxylic acid]
- melting point: 214 to 216 °C
- Cytotoxic concentration, J 744 Macrophage [7]: >1000 µg/mL
- MIC [2, 11]: 0.05 µg/mL (≈ 0.134 µM)
- MIC, MRSA 5076 + efflux inhibitor reserpine [9]: 0.2 µg/mL
- Cytotoxic concentration, V 79 CHL [8]: >1000 µg/mL
- MIC [3, 10]: 3.12 µg/mL (≈ 8.33 µM)

SMILES: COc1c(N2CCC(N)C(C)(C)C2)c(F)cc2c(=O)c(C(=O)O)cn(C3CC3)c12 (single isomer, unassigned; (+)) [Compound 19, (+)-1-Cyclopropyl-6-fluoro-1,4-dihydro-8-mehtoxy-7-(4-amino-3,3-dimethyl-1-piperidinyl)-4-oxo-quinoline-3-carboxylic acid]
- MIC, Cipro^R S. mitis 938 [1]: 0.8 µg/mL (≈ 1.98 µM)
- MIC, Cipro^R S. sanguis 941 [1]: 0.2 µg/mL (≈ 0.496 µM)
- MIC, FQ^R S. pneumoniae 718 [1]: 0.4 µg/mL (≈ 0.991 µM)
- MIC, MRSA 032 [1]: 0.8 µg/mL (≈ 1.98 µM)
- ED50 p.o. MDR S. pneumoniae 718 [4]: 20 mg/kg
- MIC, E. coli ATCC 25922 [2]: 0.2 µg/mL (≈ 0.496 µM)
- phototoxic dose [6]: greater than 500 mg/kg

SMILES: COc1c(N2CCC(N)C(C)(C)C2)c(F)cc2c(=O)c(C(=O)O)cn(C3CC3)c12 (single isomer, unassigned; (-)) [Compound 20, (−)-1-Cyclopropyl-6-fluoro-1,4-dihydro-8-mehtoxy-7-(4-amino-3,3-dimethyl-1-piperidinyl)-4-oxo-quinoline-3-carboxylic acid]
- MIC, Cipro^R S. sanguis 941 [1]: 0.4 µg/mL (≈ 0.991 µM)
- MIC, FQ^R S. pneumoniae 718 [1]: 0.8 µg/mL (≈ 1.98 µM)
- MIC, MRSA 032 [1]: 0.8 µg/mL (≈ 1.98 µM)
- ED50 p.o. MDR S. pneumoniae 718 [4]: 50 mg/kg
- MIC, E. coli ATCC 25922 [2]: 0.2 µg/mL (≈ 0.496 µM)
- phototoxic dose [6]: greater than 500 mg/kg

SMILES: COc1c(N2CCC(NC(=O)OC(C)(C)C)C(C)(C)C2)c(F)cc2c(=O)c(C(=O)O)cn(C3CC3)c12 (stereo not drawn) [Compound 23, 1-Cyclopropyl-6-fluoro-1,4-dihydro-8-methoxy-7-(4-t-butyloxycarbonylamino-3,3-dimethyl-1-piperidinyl)-4-oxo-quinoline-3-carboxylic acid]
- melting point: 218 to 220 °C
